Reference: patent US10030260B2, “Inducible reconstitution and real-time quantitative kinetic system for the study of intramembrane enzymes” (THE JOHNS HOPKINS UNIVERSITY, priority 2012, dated 2018)
Substitutions are numbered along the chain they refer to. Entries after “also recorded” stand apart in the source; their conditions may differ. Where a SMILES comes first, the peptide text is derived from it. The star is where a group is joined. FITC = O=C1OC2(c3ccc(O)cc3Oc3cc(O)ccc32)c2ccc(NC(=S)*)cc21; βAla = NCCC(=O)O

Key:
HA-EcGlpG = molecular target: T1, HA-EcGlpG (Escherichia coli, UniProt P09391); assay: Proteolysis assay in detergent micelles; assay type: biochemical; details: faster in detergent
T1 construct: GST (cleaved yes); made in house; host or cells: E. coli C43 (DE3)
T1 sequence (P09391 1-276): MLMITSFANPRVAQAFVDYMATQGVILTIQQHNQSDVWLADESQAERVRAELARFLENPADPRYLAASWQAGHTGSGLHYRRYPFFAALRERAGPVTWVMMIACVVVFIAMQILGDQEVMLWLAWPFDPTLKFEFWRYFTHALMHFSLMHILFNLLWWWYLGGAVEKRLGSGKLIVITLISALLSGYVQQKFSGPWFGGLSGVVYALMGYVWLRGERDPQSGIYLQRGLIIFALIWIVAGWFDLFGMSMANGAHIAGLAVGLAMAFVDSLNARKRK
Protocol: Cleavage reactions of APP+Spi7-Flag were performed as described previously and imaged with an Odyssey infrared scanner (LiCor Biosciences) (Baker and Urban, 2012; Baker et al., 2007). […] Reactions were quenched and analyzed on 16% tricine gels as above. Actual substrate concentrations were calibrated using FITC-TatA standards analyzed in parallel.

[1] = molecular target: T2, inactive EcGlpG mutants (His-EcGlpG C104A+H254A; HA-EcGlpG S201A+H254A) (Escherichia coli, UniProt P09391, C104A/H254A); assay type: binding; details: co-precipitation
T2 construct: made in house
T2 sequence (P09391 whole entry C104A/H254A): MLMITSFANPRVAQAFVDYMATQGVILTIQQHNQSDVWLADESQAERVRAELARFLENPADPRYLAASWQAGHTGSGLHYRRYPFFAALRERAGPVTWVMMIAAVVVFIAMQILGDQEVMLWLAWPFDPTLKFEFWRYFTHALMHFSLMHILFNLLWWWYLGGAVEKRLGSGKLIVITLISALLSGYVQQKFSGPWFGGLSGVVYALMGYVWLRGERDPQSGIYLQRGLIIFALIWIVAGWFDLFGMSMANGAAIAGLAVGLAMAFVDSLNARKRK
Protocol: 2.5 μM His-tagged EcGlpG C104A+H254A with 70 μM FITC-TatA was incubated with pre-equilibrated Ni^2+-NTA resin (Qiagen) for 3 hours at room temperature. The resin was washed, and bound proteins were eluted with SDS-sample buffer for 30 minutes. FITC-TatA was detected as above using a 16% Tricine gel and a Typhoon Imager. His-EcGlpG C104A+H254A was detected by western blot with the mouse anti-penta-His antibody (Qiagen), and imaged with an Odyssey infrared scanner (LiCor Biosciences).
Two Superdex 200 PC 3.2/30 high-resolution gel filtration columns (GE Healthcare) were connected in tandem to a ProStar 410 HPLC system (Agilent/Varian), and equilibrated with 9.5 μM FITC-TatA in 2 mM phosphate buffer pH 7.4, 25 mM Tris pH 7.4, 120 mM NaCl, 0.15% Sarkosyl, 0.1% DDM, 1 mM DTT. 20 μM HA-EcGlpG S201A+H254A was preincubated with 9.5 μM FITC-TatA, and 50 μL was injected using an Autosampler 410 onto the columns at a flow rate of 0.05 mL/minute. Elution was monitored by absorbance at all wavelengths between 200 to 600 nm simultaneously using a PDA 330 detector. The FITC-TatA peak was quantified relative to known FITC-TatA concentration standards that were run on the columns equilibrated with 9.5 μM FITC alone in buffer. Conventional gel filtration was conducted under similar conditions, except the columns were equilibrated with buffer lacking FITC-TatA.

[2] = molecular target: inactive EcGlpG mutants (His-EcGlpG C104A+H254A; HA-EcGlpG S201A+H254A); assay type: binding, Escherichia coli; details: gel filtration and co-precipitation, non-equilibrium; read-out: Kd (low affinity)
E. coli GlpG = molecular target: T3, E. coli GlpG (Escherichia coli, UniProt P09391); assay: Inducible reconstitution and real-time proteolysis assay in proteoliposomes; assay type: biochemical
T3 construct: GST (cleaved yes); made in house; host or cells: E. coli C43 (DE3)
Protocol: (§1) 30 μg of E. coli liposomes were mixed with 50 mM NaAcetate pH 4.0, 150 mM NaCl, 0.05 to 500 pmoles of rhomboid enzyme, and 20 to 1600 pmoles of FITC-substrate. This co-reconstitution mix was diluted 20-fold with 12.5 mM NaAcetate pH 4.0, 37.5 mM NaCl to reduce detergent below its critical micelle concentration and promote reconstitution. Proteoliposomes were collected by ultracentrifugation at 600,000 g for 20 minutes in an Optima MAX-XP ultracentrifuge (Beckman). […] Fluorescence was monitored every minute using monochromators set to wavelengths of 485±20 nm (excitation) and 528±20 nm (emission). Alternatively, time points were quenched with equal volumes of 2× Tricine SDS-sample buffer, resolved on 16% Tricine gels (Life Technologies), and imaged with a blue laser and fluorescein emission filters on a Typhoon Imager (GE Healthcare). APP+Spi7-Flag and HA-EcGlpG were co-reconstituted as above, resolved by SDS-PAGE, detected by 2-color anti-Flag and anti-HA western analysis, and imaged with an Odyssey infrared scanner (LiCor Biosciences).
All data were analyzed and graphed using the R language and environment. Initial rates were extracted from real-time curves between 4 and 14 minutes using the slope (m) in a linear model: y=mx+b. Initial rates versus substrate concentration of reconstituted reactions were modeled using the Hill-modified Michaelis Menten equation: v0=(Vmax*[S0]^h)/(Km^h+[S0]^h). […]
To establish controlled conditions for a Michaelis-Menten kinetic system, we lowered GlpG levels to 4 pmoles while varying substrate from 20 to 1600 pmoles and co-reconstituted both into 200 nm proteoliposomes comprised of E. coli lipids to preserve its physiological environment as much as possible (FIG. 9A). […] Finally, FITC-TatA reconstituted in both orientations in approximately equal proportions, as quantified by reacting single engineered cysteines with membrane-impermeable dyes (FIG. 3A). […]

[3] = molecular target: T4, catalytically inactive TMR-GlpG (C104A+W196TMR+H254A) (Escherichia coli, UniProt P09391, C104A/H254A/W196C); assay: FRET analysis of protease-substrate affinity in membranes; assay type: binding; details: in proteoliposomes
T4 construct: His (N); TMR (tetramethylrhodamine-5-maleimide) dye on the side chain of Cys196; made in house
T4 sequence (P09391 1-276 C104A/W196C/H254A): T1 sequence (P09391 1-276) with C104A, W196C, H254A
Protocol: Purified N-terminally His-tagged EcGlpG H254A+C104A+W196C protein was labeled at the single cysteine residue with the FRET acceptor tetramethylrhodamine-5-maleimide (TMR) (Life Technologies). Reconstitutions into E. coli liposomes were performed as described above, except that 30 pmoles of TMR-labeled protein was mixed with 25-800 pmoles of the FITC-TatA ligand. Following reconstitution, the samples were incubated at 37° C. in a Synergy H4 Hybrid plate reader. Fluorescence was measured with excitation at 485 nm and emission from 510-600 nm in 5 nm intervals. The FRET interaction was calculated at the 580 nm emission wavelength by subtracting the TMR-labeled GlpG protein alone and the FITC-TatA alone samples from the sample containing both macromolecules.

EcGlpG = EcGlpG (Escherichia coli, UniProt P09391); details: 37° C. for 3 hours
Protocol: Rhomboid protein in 50 mM Tris pH 7.4, 150 mM NaCl, 0.1% DDM was incubated with either 10% DMSO only or carrying […] JLK6 at 37° C. for 3 hours, purified using a C4 ZipTip, and analyzed by mass spectrometry as described previously (Pierrat et al., 2011).

HA-PsAarA = molecular target: T5, HA-PsAarA (Providencia stuartii, UniProt P46116); assay: Real-time kinetics of substrate variants in proteoliposomes; assay type: biochemical; details: in words
T5 construct: GST (cleaved yes); made in house; host or cells: E. coli C43 (DE3)
T5 sequence (P46116 whole entry, looked up): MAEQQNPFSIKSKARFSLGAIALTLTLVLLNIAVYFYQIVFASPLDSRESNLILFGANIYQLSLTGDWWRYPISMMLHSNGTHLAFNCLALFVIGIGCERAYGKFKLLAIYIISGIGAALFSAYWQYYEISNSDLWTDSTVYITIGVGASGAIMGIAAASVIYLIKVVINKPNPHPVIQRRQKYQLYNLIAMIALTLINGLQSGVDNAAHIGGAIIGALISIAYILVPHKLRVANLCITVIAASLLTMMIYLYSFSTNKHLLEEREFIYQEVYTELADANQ
Protocol: as §1
All data were analyzed and graphed using the R language and environment. Initial rates were extracted from real-time curves between 4 and 14 minutes using the slope (m) in a linear model: y=mx+b. […]

[4] = tested on: three different rhomboid proteases; assay: Manual 384-well compound screen in proteoliposomes; assay type: biochemical; details: 1 hour at 37° C., no compound pre-incubation
Protocol: FIG. 12. Assay Evaluation in Manual Compound Screens. […] B. We assayed 3 different rhomboid proteases independently in hand-pipetted 384-well screens against a custom-assembled library of protease inhibitors, combinatorial compounds, and membrane enzyme inhibitors (all in DMSO). Assays were conducted for 1 hour at 37° C. and fluorescence intensity was read every 2 minutes. Graphed are the 60 minute values, with the last (rightmost) 7 wells being the isocoumarin inhibition controls.
An important consideration is assay suitability for HTS, which we evaluated by manually screening a diverse panel of class-specific protease inhibitors (natural products, sulphonyl fluorides, hydroxamate-based metalloprotease inhibitors, vinyl sulfones, isocoumarins, chloromethyl ketones, proteasomal inhibitors, aspartyl protease inhibitors, cysteine protease inhibitors), a combinatorial library of peptide diphenyl-phosphonates, and over a dozen lipid enzyme inhibitors/drugs (some of which are known to affect other intramembrane proteases). We hand-assembled this library of 111 compounds because it represents likely candidates for real rhomboid inhibitors on the one hand, and on the other poses challenges for assay performance because most are chemically-reactive (warhead) molecules. […]

Compound: CC[C@H](C)[C@H](NC(=O)[C@H](CC(C)C)NC(=O)[C@@H](NC(=O)[C@@H](NC(=O)[C@H](CC(C)C)NC(=O)[C@H](CC(C)C)NC(=O)[C@H](C)NC(=O)[C@@H](NC(=O)[C@@H](NC(=O)[C@@H](NC(=O)[C@H](CC(C)C)NC(=O)[C@H](CCC(N)=O)NC(=O)[C@H](Cc1c[nH]c2ccccc12)NC(=O)[C@@H]1CCCN1C(=O)[C@H](CO)NC(=O)CNC(=O)[C@H](Cc1ccccc1)NC(=O)[C@H](C)NC(=O)[C@H](C)NC(=O)[C@@H](NC(=O)[C@H](C)NC(=O)[C@@H](NC(=O)[C@@H](NC(=O)[C@H](CO)NC(=O)[C@H](CCC(=O)O)NC(=O)[C@H](CCSC)NC(=O)CCNC(=S)Nc1ccc2c(c1)C(=O)OC21c2ccc(O)cc2Oc2cc(O)ccc21)[C@@H](C)O)[C@@H](C)CC)[C@@H](C)O)[C@@H](C)CC)[C@@H](C)CC)[C@@H](C)CC)[C@@H](C)CC)[C@@H](C)CC)C(=O)N[C@@H](Cc1ccccc1)C(=O)NCC(=O)N[C@H](C(=O)N[C@@H](CCCCN)C(=O)N[C@@H](CCCCN)C(=O)N[C@@H](CC(C)C)C(=O)N[C@@H](CCCNC(=N)N)C(N)=O)[C@@H](C)O [FITC-TatA] ({FITC-βAla}-MESTIATAAFGSPWQLIIIALLIILIFGTKKLR-NH2)
- kcat in detergent relative to proteoliposomes (HA-EcGlpG): ~6.5 fold
- FITC-TatA eluting with His-EcGlpG [1]: < 0.1%
- Kd [2]: > 800 µM
- KM (E. coli GlpG; proteoliposomes of E. coli lipids, relative to phospholipid): 0.14±0.02 mole percent
- kcat (E. coli GlpG; proteoliposomes, enzyme saturated with substrate): 0.0063 ± 0.00021 s⁻¹
- apparent Kd [3]: 0.08±0.026 mole percent

Compound: COc1oc(=O)c2cc(N)ccc2c1Cl [JLK6, reference compound]
- mass shift of enzyme after incubation with inhibitor (EcGlpG): complete mass shift
- effect on fluorescence signal and cleavage product of FITC-TatA cleavage (E. coli GlpG; proteoliposomes, 37° C., pretreatment with inhibitor): blocked generation of the fluorescence signal and cleavage product; also recorded: abrogated signal to background

Compound: Spitz: Drosophila signaling molecule Spitz residues 135-168 of 186, FITC-labelled substrate
- kcat and KM relative to TatA (HA-PsAarA): lower kcat without any significant change in KM

Compound: O=c1occc2ccccc12 [isocoumarin]
- inhibition in screen [4]: obvious evidence of inhibition of all three rhomboid proteases
